Experimental data from patent publication US20230286983A1 (4E Therapeutics, Inc., priority 2020, published 2023).
Several values for one entry are separate records, joined by “and”; a condition that tells them apart may be missing. Equal entries are not always repeated. Where two headings read alike, the source gives them in different places. Values belong to the compound of their own block, whether it stands above or below them.

Key:
P-gp (human MDR1, ABCB1) = assay: MDCK-MDR1 permeability (blood brain barrier permeability); format: in vitro ADME, Canine; conditions: dog; for efflux ratio at 5 μM: MDCK-MDR1, 5 μM, read-out: Efflux ratio (ratio B-A/A-B); for Papp A→B at 5 μM: MDCK-MDR1, Apical to basolateral transport; for Papp A→B at 5 μM / Papp B→A at 5 μM: average of two experiments; for Papp B→A at 5 μM: MDCK-MDR1, Basolateral to apical transport
[1] = Brain to plasma ratio, 4ET-01-021 at 3.0 mg/kg PO; format: in vivo, male CD-1 mouse; conditions: for concentration at 2 h: oral, 3 mg/kg
MNK2 = MNK2 (Homo sapiens, UniProt Q9HBH9); assay: MNK2 substrate phosphorylation assay; format: biochemical; conditions: recombinant human kinase
[2] = tested on: eIF4E phosphorylation at Serine 209 in the human embryonic kidney (HEK) 293 cell line; assay: eIF4E phosphorylation in HEK 293 cells (fluorescent plate reader); format: cell-based; conditions: Homo sapiens, HEK293, 2 h, eIF4E phosphorylation at Serine 209, 2 hours exposure
How it was run: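 HEK-293 cells were treated with compound for 2 h, then methanol-fixed and Triton-permeabilized. Ser209 phospho-eIF4E was stained with primary antibody (1:2000, overnight) and an Alexa Fluor 488 secondary. Fluorescence was normalized to DAPI, and IC50 was fitted from concentration-response data.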

eIF4E phosphorylation = assay: In vivo eIF4E phosphorylation in different tissues (Western blot), 4ET-01-021; parameters: species or system mice; conditions: PO 10 mg/kg
Text: However, 4ET-01-021 minimally-inhibited phosphorylation of eIF4E in the brain, as determined by Western blot analysis of brain tissue from the cortex.

MNK1 = MNK1 (Homo sapiens, UniProt Q9BUB5); assay: MNK1 substrate phosphorylation assay; format: biochemical; conditions: recombinant human kinase
p-eIF4E = assay: Western blot of eIF4E and p-eIF4E in tissues, 4ET-03-009; format: in vivo, mice; conditions: 10 mg/kg oral, 2 hours after dosing, vs vehicle
Experimental: In separate mice administered the same therapy, 2 hours after dosing tissues were harvested from the sciatic nerve, liver, brain, and DRG and homogenized, then subjected to Western blot analysis for eIF4E and p-eIF4E. Control mice administered only the solvent vehicle with no MNK inhibitor were also assayed. Amounts of p-eIF4E in each tissue based on the mean for all three mice administered the therapeutic and based on the mean for all three control mice are presented in FIG. 2, right panel. […] Units on the y-axis are % of signal standardized to the control.

[3] = biological target: Cdc2-like kinase 4 (CLK4) (Homo sapiens, UniProt Q9HAZ1); assay: Off-target kinase screen CLK4; format: biochemical; conditions: 1 μM test compound
Text: These kinases were chosen because they are the only known off-target hit kinases for eFT508. These assays were done using recombinant human kinases (CLK4, DRAK1 and PKG2) in a substrate phosphorylation assay. % activity remaining after MNK inhibitor treatment is indicated in Table 12.

[4] = tested on: eIF4E phosphorylation at Serine 209 in Karpas 299; assay: eIF4E phosphorylation in Karpas 299 cells (sandwich ELISA); format: cell-based; conditions: Homo sapiens, read-out: Karpas 299 cell IC50
Experimental: The ability of MNK inhibitors described herein to inhibit eIF4E phosphorylation at Serine 209 in Karpas 299, Human Non-Hodgkin's Ki-positive Large Cell Lymphoma cell line was tested by sandwich enzyme linked immune-absorbance assay.

[5] = Brain vs plasma concentration, 4ET-03-009 at 10 mg/kg; format: in vivo, mice; conditions: 10 mg/kg oral, 2 hours after dosing; for concentration at 2 hours: oral, 10 mg/kg
Experimental: In separate mice administered the same therapy, brain tissue was harvested 2 hours after dosing and brain concentration of the MNK inhibitor was measured by homogenizing brain tissue followed by LC-MS/MS analysis. Plasma concentration was measured as described above.

MNK1, sequence (Q9BUB5 whole entry): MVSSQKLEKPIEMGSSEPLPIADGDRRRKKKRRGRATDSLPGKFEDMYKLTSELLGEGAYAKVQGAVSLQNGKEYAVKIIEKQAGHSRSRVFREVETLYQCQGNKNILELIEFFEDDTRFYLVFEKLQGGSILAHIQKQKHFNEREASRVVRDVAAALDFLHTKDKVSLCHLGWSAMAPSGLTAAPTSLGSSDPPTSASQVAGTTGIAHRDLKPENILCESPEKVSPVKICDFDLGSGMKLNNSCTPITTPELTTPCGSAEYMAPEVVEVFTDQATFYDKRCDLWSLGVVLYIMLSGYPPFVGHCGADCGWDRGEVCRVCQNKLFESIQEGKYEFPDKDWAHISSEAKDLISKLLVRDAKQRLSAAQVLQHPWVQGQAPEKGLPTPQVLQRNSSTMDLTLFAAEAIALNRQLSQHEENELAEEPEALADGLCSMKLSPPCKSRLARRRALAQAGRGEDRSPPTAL
MNK2, sequence (Q9HBH9 whole entry): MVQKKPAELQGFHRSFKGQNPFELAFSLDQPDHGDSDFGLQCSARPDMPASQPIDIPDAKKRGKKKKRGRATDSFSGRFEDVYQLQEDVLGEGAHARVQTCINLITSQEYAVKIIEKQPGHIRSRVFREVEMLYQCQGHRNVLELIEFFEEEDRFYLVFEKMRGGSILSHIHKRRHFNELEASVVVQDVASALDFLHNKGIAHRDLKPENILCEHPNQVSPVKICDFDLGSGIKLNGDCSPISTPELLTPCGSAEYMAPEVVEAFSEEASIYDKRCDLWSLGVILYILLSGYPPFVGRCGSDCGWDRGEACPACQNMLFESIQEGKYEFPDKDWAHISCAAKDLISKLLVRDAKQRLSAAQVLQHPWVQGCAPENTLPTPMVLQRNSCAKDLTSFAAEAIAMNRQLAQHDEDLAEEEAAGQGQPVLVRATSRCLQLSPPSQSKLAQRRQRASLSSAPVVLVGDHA
Cdc2-like kinase 4 (CLK4), sequence (Q9HAZ1 whole entry): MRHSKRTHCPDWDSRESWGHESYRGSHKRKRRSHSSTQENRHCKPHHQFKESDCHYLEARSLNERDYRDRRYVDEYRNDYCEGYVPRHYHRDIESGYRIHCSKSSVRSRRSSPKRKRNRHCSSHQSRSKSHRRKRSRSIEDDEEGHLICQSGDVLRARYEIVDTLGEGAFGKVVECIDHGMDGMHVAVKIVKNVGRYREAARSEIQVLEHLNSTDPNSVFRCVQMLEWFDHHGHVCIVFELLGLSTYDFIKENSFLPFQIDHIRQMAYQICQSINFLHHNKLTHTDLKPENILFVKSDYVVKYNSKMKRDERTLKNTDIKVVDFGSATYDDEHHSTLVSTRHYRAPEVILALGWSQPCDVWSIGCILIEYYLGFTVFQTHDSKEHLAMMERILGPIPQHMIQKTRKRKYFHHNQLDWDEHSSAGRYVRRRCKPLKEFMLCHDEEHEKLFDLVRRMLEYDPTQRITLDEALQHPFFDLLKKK

efflux ratio at 5 μM (P-gp (human MDR1, ABCB1)): 0.9
Papp A→B at 5 μM (P-gp (human MDR1, ABCB1)): 55.3 ×10⁻⁶ cm/s
Papp B→A at 5 μM (P-gp (human MDR1, ABCB1)): 52 ×10⁻⁶ cm/s
Tissue Homogenate Concentration ([1]; 2 hr, Brain, individual): 17.6 ng/mL and 12.2 ng/mL
Plasma Concentration ([1]; 2 hr, Plasma, individual): 462 ng/mL and 383 ng/mL
Kp at 2 h ([1]; male, CD-1, mouse, 2 h post dosing, Brain, read-out: Mean tissue/plasma concentration ratio (B:P ratio)): 0.142
concentration at 2 h ([1]; male, CD-1, mouse, brain homogenate, 2 h, Brain, read-out: Mean (brain homogenate)): 14.8 ng/mL
concentration at 2 h ([1]; male, CD-1, mouse, brain homogenate, 2 hr, Brain, individual, read-out: Tissue Homogenate Concentration): 14.5 ng/mL
concentration at 2 h ([1]; male, CD-1, mouse, brain, 2 h, Brain, read-out: Mean Tissue): 59.1 ng/g
concentration at 2 h ([1]; male, CD-1, mouse, plasma, 2 h, Plasma, read-out: Mean (plasma)): 416 ng/mL
concentration at 2 h ([1]; male, CD-1, mouse, plasma, 2 hr, Plasma, individual, read-out: Plasma Concentration): 404 ng/mL
IC50 (MNK2): 5.8 nM
IC50 (MNK1): 38.7 nM
SMILES: CCC1=CC2(CCC1)NC(=O)c1c(C)cc(Nc3cc(N)ncn3)c(=O)n12 (stereo not shown) [Compound 4ET-01-021, 6′-((6-Aminopyrimidin-4-yl)amino)-3-ethyl-8′-methyl-2′H-spiro[cyclohexane-1,3′-imidazo[1,5-a]pyridin]-2-ene-1′,5′-dione]
IC50 [2]: 6 nM
eIF4E phosphorylation in the brain (cortex) (eIF4E phosphorylation): minimally-inhibited
eIF4E phosphorylation in DRGs, sciatic nerve, and spleen (eIF4E phosphorylation; 2 hours or 4 hours post dose): significant inhibition of eIF4E phosphorylation

efflux ratio at 5 μM (P-gp (human MDR1, ABCB1)): 4.6
Papp A→B at 5 μM (P-gp (human MDR1, ABCB1)): 5.4 ×10⁻⁶ cm/s
Papp B→A at 5 μM (P-gp (human MDR1, ABCB1)): 25 ×10⁻⁶ cm/s
IC50 (MNK2): 2.6 nM
remaining activity at 1 µM [3]: 54%
IC50 (MNK1): 31.3 nM
IC50 [4]: 6.2 nM
brain entry [5]: enters the brain very poorly
Tissue Homogenate Conc. n = 3 ([5]; Brain, individual): 5.5 ng/mL and 7.28 ng/mL
Plasma Conc. n = 3 ([5]; Plasma, individual): 292 ng/mL and 337 ng/mL
concentration at 2 hours ([5]; CD-1, mouse, brain homogenate, Brain, individual, read-out: Tissue Homogenate Conc. n = 3): 7.67 ng/mL
concentration at 2 hours ([5]; CD-1, mouse, brain homogenate, Brain, read-out: Tissue Homogenate Conc. Mean): 6.82 ng/mL
concentration at 2 hours ([5]; CD-1, mouse, brain, Brain, read-out: Mean Tissue): 27.3 ng/g
Kp at 2 hours ([5]; CD-1, mouse, brain/plasma, Brain, read-out: Mean Tissue/Plasma Conc. Ratio): 0.083
concentration at 2 hours ([5]; CD-1, mouse, plasma, Plasma, individual, read-out: Plasma Conc. n = 3): 357 ng/mL
concentration at 2 hours ([5]; CD-1, mouse, plasma, Plasma, read-out: Plasma Conc. Mean): 329 ng/mL
SMILES: Cc1cc(Nc2cc(NC(=O)C3CC3)ncn2)c(=O)n2c1C(=O)NC21CCOCC1 [Compound 4ET-03-009, N-(6-((8-Methyl-1,5-dioxo-1,2′,3′,5,5′,6′-hexahydro-2H-spiro[imidazo[1,5-a]pyridine-3,4′-pyran]-6-yl)amino)pyrimidin-4-yl)cyclopropanecarboxamide]
IC50 [2]: 1.7 nM
p-eIF4E in sciatic nerve, liver, brain and DRG (p-eIF4E): significantly decreased peIF4E in all tissues assayed
